Test results taken from paper PMC3653568 (Nature, 2012).
pKi: −log10 of the molar value.

Assays:
Dopamine receptor D2 = Dopamine receptor D2 (Homo sapiens, UniProt P14416); assay type: cell-based; conditions: Fig. 3A agonist assay
D2 Receptor = D2 Receptor (Homo sapiens, UniProt P14416); assay: radioligand binding, [3H]N-methylspiperone; conditions: @ 10μM (Fig. 1c)
Dopamine receptor D4 = molecular target: T1, Dopamine receptor D4 (Homo sapiens, UniProt P21917); assay type: cell-based; conditions: Fig. 3A agonist assay
T1 sequence (P21917 1-419): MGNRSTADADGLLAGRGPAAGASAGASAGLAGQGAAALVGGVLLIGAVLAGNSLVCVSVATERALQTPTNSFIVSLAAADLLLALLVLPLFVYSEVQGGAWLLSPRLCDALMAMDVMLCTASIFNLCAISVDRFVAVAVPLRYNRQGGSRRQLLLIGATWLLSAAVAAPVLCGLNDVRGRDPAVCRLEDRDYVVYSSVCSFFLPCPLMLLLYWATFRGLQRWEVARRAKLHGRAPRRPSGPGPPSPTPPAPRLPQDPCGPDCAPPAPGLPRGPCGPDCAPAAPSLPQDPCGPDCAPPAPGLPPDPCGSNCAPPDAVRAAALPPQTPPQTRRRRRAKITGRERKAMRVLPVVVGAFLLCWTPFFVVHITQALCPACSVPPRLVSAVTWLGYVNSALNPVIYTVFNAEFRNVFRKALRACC

D4 Receptor = molecular target: T2, D4 Receptor (Homo sapiens, UniProt P21917); assay: radioligand binding, [3H]N-methylspiperone; conditions: bound stated
T2 sequence (P21917 1-419): T1 sequence (P21917 1-419)

Chain of D2 Receptor (P14416 whole entry): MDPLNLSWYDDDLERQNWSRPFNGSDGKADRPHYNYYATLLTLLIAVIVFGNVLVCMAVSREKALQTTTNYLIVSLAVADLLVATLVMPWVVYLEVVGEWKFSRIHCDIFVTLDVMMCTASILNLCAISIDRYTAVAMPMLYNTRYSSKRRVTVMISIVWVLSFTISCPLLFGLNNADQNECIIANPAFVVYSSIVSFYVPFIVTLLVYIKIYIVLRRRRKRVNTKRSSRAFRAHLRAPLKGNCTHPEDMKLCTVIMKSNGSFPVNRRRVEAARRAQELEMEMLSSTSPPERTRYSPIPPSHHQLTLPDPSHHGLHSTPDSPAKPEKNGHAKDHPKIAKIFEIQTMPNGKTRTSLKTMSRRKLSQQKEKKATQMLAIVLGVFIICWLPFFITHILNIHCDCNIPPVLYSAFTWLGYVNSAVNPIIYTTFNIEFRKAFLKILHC
Chain of Dopamine receptor D2 (P14416 whole entry, species assumed): as the sequence (P14416 whole entry) above

D2 functional mode (Dopamine receptor D2) | radioligand percentage inhibition D2 (D2 Receptor) [%] | D4 functional mode (Dopamine receptor D4) | pKi (D4 Receptor) | Compound
inverse agonist | 96 | agonist |  | COc1cc2c(cc1OC)C(=O)N(CCCCN1CCN(c3ccccc3OC)CC1)C2 [Compound 3]
 |  |  | > 6.00 | c1cncc(OC[C@@H]2CN(CCN3CCc4ccccc43)CCO2)c1 [Compound 21s]
 | 19 | inverse agonist |  | COc1cc2c(cc1OC)C(=O)C(CC1CCN(Cc3ccccc3)CC1)C2 (stereo not drawn) [Donepezil (Cpd 1), Donepezil, reference compound]
